Experimental data as given in US6991812B2, “Agent for preventing, improving or treating hypertension” (Kao Corporation, priority 2000, dated 2006).

Test system: male spontaneous hypertensive rats (SHR)
Test: Immediate effect on blood pressure in SHR, 1 hour after oral administration, tail artery systolic blood pressure
Format: in vivo, rat
Settings: Example 6, organic acid, SHR aged 15 weeks, mean ± standard error
Procedure: The blood pressure of each of male spontaneous hypertensive rats (SHR) was preliminarily continuously measured for 7 days by means of a commercially available non-invasive sphygmomanometer (manufactured by Softlon Co.), thereby fully accustoming the rats to the sphygmomanometry, and an evaluation test was then started. All the rats were bred (in a breeding chamber in a rat zone) under conditions of a temperature of 25±1° C., a relative humidity of 55±10% and a lighting time of 12 hours (from 7 a.m. to 7 p.m.).
The thus-obtained test results were expressed by a mean and standard error to conduct a Student's t-test. A level of significance was defined as at most 5%.
Six rats aged 15 weeks at the time the administration test was started were used in each group. The systolic blood pressure of a tail artery of each rat was measured after 1 hour from the beginning of the administration.
In Control Group, water was orally administered. In Comparative Group 1, a 0.2% aqueous solution of ferulic acid was orally administered. […]
Six rats aged 15 weeks at the time the administration test was started were used in each group. The systolic blood pressure of a tail artery of each rat was measured after 1 hour from the beginning of oral administration. […]
In Control Group, a 1% aqueous solution of sugar was orally administered. […] The dose was determined to be 15 mL/kg.

## COc1cc(/C=C/C(=O)O)ccc1O [Comp. Group 2, ferulic acid]
n=6, baseline
  Systolic blood pressures, Before administration: 208.0 ± 4.1 mmHg
n=6, oral aqueous solution
  Systolic blood pressures, After 1 hour from administration: 179.7 ± 4.4 mmHg
